Laboratory results reported in article PMC5120204, “Identification of an orally active small-molecule PTHR1 agonist for the treatment of hypoparathyroidism” (Nature Communications, 2016).
Read-outs that look alike come from different tables or passages of the source.

What was measured:
TPTX rats = experiment: Repeated administration study in TPTX rats, study 2 (add-on to alfacalcidol); type: in vivo, rat; settings: once-daily oral 6 mg kg^−1 plus 38 ng kg^−1 of alfacalcidol, 4 weeks
Experimental: TPTX was carried out in 6-week-old female Crl:CD (SD) rats (Charles River Laboratories). Rats with serum Ca levels of <8.0 mg dl^−1 at 5 days after surgery were used in the following experiments. The rats were divided into four groups both in study 1 and 2, each with a similar mean value of serum Ca levels and body weight. Sample sizes were determined as described in the above single administration study. To evaluate the calcemic effects of PCO371 and hPTHs, we defined a target therapeutic range for serum Ca of 7.6–11.2 mg dl^−1, which corresponds to the low normal to normal range of serum Ca levels.
TPTX rats were orally treated once daily (vehicle; alfacalcidol (Chugai Pharma Manufacturing) at 38 or 75 ng kg^−1; or alfacalcidol at 38 ng kg^−1 plus PCO371 at 6 mg kg^−1) for 4 weeks. Five or six TPTX rats were assigned to each dose group. The vehicle for alfacalcidol was medium-chain triglyceride (Chugai Pharma Manufacturing). Under isoflurane anaesthesia, jugular vein blood was collected immediately before and at 6 and 10 h after administration to measure serum Ca levels on day 1 (the first dosing day), 8, 14, 22 and 28. Urine was collected for 24 h by using metabolic cages on days 28 and 29. Serum and urine Ca levels were measured in the same way as in the single-dosing study.

OVX rats [1] = experiment: Bone histomorphometry of lumbar vertebra in OVX rats; type: in vivo, rat
Experimental: (§1) OVX was carried out in 32-week-old female Crl:CD (SD) rats (Charles River Laboratories). Twelve weeks after surgery, lumbar vertebral BMD (L3–L5) was measured in vivo by dual-energy X-ray absorptiometry (DXA) using a DCS-600EX-IIIR bone densitometer (Hitachi Aloka Medical), and the rats were divided into five groups, each with a similar mean value of BMD and body weight. Sample sizes were determined based on previous experiments with hPTHs and a published study with ibandronate and eldecalcitriol in our laboratories[42] (n=7–10). Then, OVX rats were treated once daily intravenously (vehicle or PCO371 at 3 or 10 mg kg^−1) or orally (vehicle or PCO371 at 30 mg kg^−1) or subcutaneously [vehicle or hPTH(1–34) at 0.9 nmol kg^−1] for 12 weeks. Ten to twelve OVX rats were assigned to each dose group. Nine rats were assigned to the sham-operated control group and were treated with vehicle for PCO371. Ten per cent DMSO (Wako Pure Chemical Industries)/10% Kolliphor EL (Sigma-Aldrich) in 10% hydroxypropyl-β-cyclodextrin (HPCD; Nihon Shokuhin Kako)/0.752% glycine (Wako Pure Chemical Industries) buffer was used as vehicle for PCO371, and phosphate-citrate buffer (pH 6.0) was used as vehicle for hPTH(1–34). To label bone-forming surfaces, tetracycline ([…], Nippon Zenyaku Kogyo) was subcutaneously injected on Day 78 and calcein (8 mg kg^−1, Dōjindo Laboratories) was subcutaneously injected on day 83. Under isoflurane anaesthesia, jugular vein blood was collected immediately before and at 1, 2, 6, 10 and 24 h after administration on day 82 to measure plasma concentration of PCO371 or on day 84 to measure serum Ca levels (o-CPC method, Wako Pure Chemical Industries). Urine was collected for 24 h from metabolic cages on days 84–85 to measure urinary collagen type 1 cross-linked C-telopeptide (CTX) by using the RatLaps ELISA System (Immunodiagnostic Systems). Under isoflurane anaesthesia, blood was collected on day 85 from the abdominal aorta to measure serum osteocalcin level by using the Rat Osteocalcin ELISA System (GE Healthcare). The lumbar spine and bilateral femurs were excised after 12 weeks of treatment. The first lumbar vertebra (L1), 3rd to 5th lumbar vertebrae (L3–L5), the right femur, and the right tibia were preserved in 70% ethanol to measure bone histomorphometry and BMD (DCS-600EX; Hitachi Aloka Medical). Measurement of bone histomorphometry was performed by the Ito Bone Histomorphometry Institute (Niigata, Japan). The second lumbar vertebra (L2) was wrapped in saline-soaked gauze and stored at −80 °C until measurement. Ultimate compressive strength (N) of the L2 vertebra was measured by using a mechanical testing machine (TK-252C; Muromachi Kikai).

[2] = Pharmacokinetics in OVX rats; type: in vivo; settings: female, Crl:CD(SD), rat, plasma, iv
[3] = Pharmacokinetics in normal rats; settings: for half-life / AUC(0-inf) / Cmax / Tmax: female, RccHan:WIST, rat, plasma, po
Experimental: PCO371 was administered at a dose of 2, 6 or 18 mg kg^−1 orally to 7-week-old normal female rats (RccHan: WIST, JLA; three rats for each dose group), or at a dose of 2, 6 or 18 mg kg^−1 orally to 7-week-old female TPTX rats [Crl:CD(SD), Charles River Laboratories; three TPTX rats for each dose group] or at 30 mg kg^−1 orally or 3, 10 mg kg^−1 intravenously to 55-week-old OVX rats as described above. Blood samples were collected at 15 and 30 min, and 1, 2, 4, 8 and 24 h after administration. […] The concentrations of plasma PCO371 were determined by liquid chromatography–tandem mass spectrometry [LC-MS/MS (API-3200 (AB SCIEX), detection limit: 1 ng ml^−1).

OVX rats [4] = experiment: Repeated administration study in OVX rats; type: in vivo, rat
Experimental: as §1

[5] = i.v. 3 mg kg-1 once daily 12 weeks
[6] = i.v. 10 mg kg-1 once daily 12 weeks
[7] = p.o. 30 mg kg-1 once daily 12 weeks
[8] = daily oral 30 mg kg^−1, 12 weeks

Cc1cc(N2C(=O)NC(=O)C2(C)C)cc(C)c1CCS(=O)(=O)N1CCC2(CC1)N=C(c1ccc(OC(F)(F)F)cc1)NC2=O [PCO371, 1-{3,5-dimethyl-4-[2-({4-oxo-2-[4-(trifluoromethoxy)phenyl]-1,3,8-triazaspiro[4.5]dec-1-en-8-yl}sulfonyl)ethyl]phenyl}-5,5-dimethylimidazolidine-2,4-dione]
serum Ca (TPTX rats): comparable with that by 75 ng kg^−1 of alfacalcidol alone | urinary Ca excretion (TPTX rats): did not elevate urinary Ca excretion | BFR/BS (Bone formation rate/Bone surface) (OVX rats [1]; [5]): 0.144 ± 0.013 mm3 per mm2 per year | BRs.R (OVX rats [1]; [5]): 0.039 ± 0.005 mm2 per mm2 per year | BV/TV (Bone volume/Tissue volume) (OVX rats [1]; [5]): 23.2 ± 1.9% | ES/BS (Eroded surface/Bone surface) (OVX rats [1]; [5]): 27.6 ± 2.5% | MAR (Mineral apposition rate) (OVX rats [1]; [5]): 1.84 ± 0.07 µm per day | N.Ob/BS (Number of osteoblasts/Bone surface) (OVX rats [1]; [5]): 11.36 ± 0.71 N per mm | N.Oc/BS (Number of osteoclasts/Bone surface) (OVX rats [1]; [5]): 2.55 ± 0.22 N per mm | OV/TV (Osteoid volume/Tissue volume) (OVX rats [1]; [5]): 0.465 ± 0.040% | ObS/BS (Osteoblast surface/Bone surface) (OVX rats [1]; [5]): 14.98 ± 1.07% | OcS/BS (Osteoclast surface/Bone surface) (OVX rats [1]; [5]): 8.49 ± 0.79% | Tb. N (Trabecular number) (OVX rats [1]; [5]): 3.07 ± 0.18 N per mm | Tb. Sp (Trabecular separation) (OVX rats [1]; [5]): 264 ± 24 µm | Tb. Th (Trabecular thickness) (OVX rats [1]; [5]): 75.1 ± 4.1 µm | BFR/BS (Bone formation rate/Bone surface) (OVX rats [1]; [6]): 0.275 ± 0.022 mm3 per mm2 per year | BRs.R (OVX rats [1]; [6]): 0.071 ± 0.008 mm2 per mm2 per year | BV/TV (Bone volume/Tissue volume) (OVX rats [1]; [6]): 20.1 ± 1.1% | ES/BS (Eroded surface/Bone surface) (OVX rats [1]; [6]): 33.0 ± 1.6% | MAR (Mineral apposition rate) (OVX rats [1]; [6]): 2.22 ± 0.06 µm per day | N.Ob/BS (Number of osteoblasts/Bone surface) (OVX rats [1]; [6]): 16.09 ± 1.72 N per mm | N.Oc/BS (Number of osteoclasts/Bone surface) (OVX rats [1]; [6]): 3.60 ± 0.20 N per mm | OV/TV (Osteoid volume/Tissue volume) (OVX rats [1]; [6]): 0.690 ± 0.076% | ObS/BS (Osteoblast surface/Bone surface) (OVX rats [1]; [6]): 24.64 ± 2.70% | OcS/BS (Osteoclast surface/Bone surface) (OVX rats [1]; [6]): 11.69 ± 0.70% | Tb. N (Trabecular number) (OVX rats [1]; [6]): 2.54 ± 0.11 N per mm | Tb. Sp (Trabecular separation) (OVX rats [1]; [6]): 322 ± 18 µm | Tb. Th (Trabecular thickness) (OVX rats [1]; [6]): 79.2 ± 2.7 µm | BFR/BS (Bone formation rate/Bone surface) (OVX rats [1]; [7]): 0.285 ± 0.023 mm3 per mm2 per year | BRs.R (OVX rats [1]; [7]): 0.057 ± 0.006 mm2 per mm2 per year | BV/TV (Bone volume/Tissue volume) (OVX rats [1]; [7]): 20.1 ± 1.4% | ES/BS (Eroded surface/Bone surface) (OVX rats [1]; [7]): 39.7 ± 1.6% | MAR (Mineral apposition rate) (OVX rats [1]; [7]): 2.28 ± 0.08 µm per day | N.Ob/BS (Number of osteoblasts/Bone surface) (OVX rats [1]; [7]): 17.55 ± 1.43 N per mm | N.Oc/BS (Number of osteoclasts/Bone surface) (OVX rats [1]; [7]): 4.30 ± 0.27 N per mm | OV/TV (Osteoid volume/Tissue volume) (OVX rats [1]; [7]): 0.794 ± 0.085% | ObS/BS (Osteoblast surface/Bone surface) (OVX rats [1]; [7]): 25.14 ± 2.09% | OcS/BS (Osteoclast surface/Bone surface) (OVX rats [1]; [7]): 13.60 ± 0.69% | Tb. N (Trabecular number) (OVX rats [1]; [7]): 2.64 ± 0.14 N per mm | Tb. Sp (Trabecular separation) (OVX rats [1]; [7]): 315 ± 24 µm | Tb. Th (Trabecular thickness) (OVX rats [1]; [7]): 76.0 ± 3.1 µm | concentration at 2 min ([2]; i.v. 3 mg kg-1, read-out: C2min (concentration at 2 min after administration)): 17500 ng/mL | concentration at 2 min ([2]; i.v. 10 mg kg-1, read-out: C2min (concentration at 2 min after administration)): 50100 ng/mL | half-life [3]: 1.5 to 1.7 h | AUC(0-inf) ([3]; 2 mg/kg): 374 ± 187 ng·h/mL | Cmax ([3]; 2 mg/kg): 92.5 ± 37.1 ng/mL | Tmax ([3]; 2 mg/kg): 1.5 ± 0.9 h | half-life ([3]; 2 mg/kg): 1.5 ± 0.1 h | AUC(0-inf) ([3]; 6 mg/kg): 2360 ng·h/mL | Cmax ([3]; 6 mg/kg): 727 ± 103 ng/mL | Tmax ([3]; 6 mg/kg): 1 h | half-life ([3]; 6 mg/kg): 1.4 ± 0.2 h | AUC(0-inf) ([3]; 18 mg/kg): 18600 ng·h/mL | Cmax ([3]; 18 mg/kg): 4560 ng/mL | Tmax ([3]; 18 mg/kg): 1.3 ± 0.6 h | half-life ([3]; 18 mg/kg): 1.7 ± 0.3 h | BA (oral bioavailability) ([3]; normal rats, p.o. 2 mg kg^−1): 34% | time at which Cmax was attained ([3]; normal rats, single oral dose, dose range tested): 1 to 1.5 h | BMD or bone strength in the lumbar spine (OVX rats [4]; daily intravenous 3 mg kg^−1, 12 weeks): did not affect | BMD in the proximal femur (OVX rats [4]; [8]): partially increased | BMD in total femur (OVX rats [4]; [8]): not in total femur | BMD or bone strength in the lumbar spine (OVX rats [4]; [8]): did not affect | serum Ca (OVX rats [4]; day 84, all treated rats): within the normal range | serum osteocalcin and urinary CTX/creatinine (OVX rats [4]; intravenous 10 mg kg^−1, 12 weeks): significant increase | BMD and bone strength in the lumbar vertebrae (OVX rats [4]; once-daily intravenous 10 mg kg^−1, 12 weeks, vs vehicle): significant increase | serum osteocalcin and urinary CTX/creatinine (OVX rats [4]; oral 30 mg kg^−1, 12 weeks): significant increase
